Source: ChEMBL document CHEMBL3421561, “CNS drug design: balancing physicochemical properties for optimal brain exposure” (J Med Chem, 2015)

How the values were obtained:
Gerbillinae = assay: Antagonist activity at NK1 receptor in substance P-induced gerbil foot tapping model
Substance-P receptor = Substance-P receptor (Homo sapiens, UniProt P25103); assay: Antagonist activity at NK1 receptor (unknown origin)
Rattus norvegicus = assay: AUC (0 to 1 hr) in rat at 0.5 mg/kg, iv; type: ADME, organism-based, Plasma; parameters: time < 1 hr, dose 0.5 mg/kg, route intravenous; conditions: in vivo
[1] = Ratio of drug uptake in brain to plasma in rat; type: ADME; conditions: brain and plasma
[2] = AUC in rat interstitial fluid at 10 mg/kg, sc by transcortical microdialysis; type: ADME, organism-based; parameters: dose 10 mg/kg, route subcutaneous; conditions: in vivo
Brain = assay: AUC in rat brain at 10 mg/kg, sc; type: ADME, organism-based; parameters: dose 10 mg/kg, route subcutaneous; conditions: in vivo
[3] = Apparent permeability of the compound; conditions: not told
[4] = Ratio of unbound drug in brain to plasma in rat; type: ADME; conditions: brain and plasma, read-out: K(p,uu,brain)
Mu-type opioid receptor = Mu-type opioid receptor (Homo sapiens, UniProt P35372); assay: biochemical; type: cell-based, 293T
Description: Displacement of [3H]naloxone from MOR (unknown origin) expressed in human 293T cells

[5] = Solubility of the compound; type: physicochemical
[6] = Half life in dog; type: ADME, organism-based, Canis lupus familiaris; conditions: in vivo
[7] = Oral bioavailability in dog; type: ADME, organism-based, Canis lupus familiaris; conditions: in vivo
[8] = Ratio of unbound drug in brain to plasma in mouse; type: ADME, organism-based; conditions: brain and plasma, read-out: K(p,uu,brain)

Sequence of Substance-P receptor (P25103 whole entry): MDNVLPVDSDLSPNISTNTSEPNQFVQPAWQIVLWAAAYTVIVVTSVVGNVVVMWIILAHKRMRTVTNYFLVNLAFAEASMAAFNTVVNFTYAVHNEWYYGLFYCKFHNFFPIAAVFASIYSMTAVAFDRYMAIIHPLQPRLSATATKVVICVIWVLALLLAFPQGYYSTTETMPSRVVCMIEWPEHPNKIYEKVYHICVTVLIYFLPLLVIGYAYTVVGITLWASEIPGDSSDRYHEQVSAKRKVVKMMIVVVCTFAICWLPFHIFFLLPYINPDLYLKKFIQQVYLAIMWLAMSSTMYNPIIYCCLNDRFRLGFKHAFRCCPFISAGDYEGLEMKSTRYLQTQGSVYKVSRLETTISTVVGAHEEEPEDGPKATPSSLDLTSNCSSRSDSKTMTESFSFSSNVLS
Sequence of Mu-type opioid receptor (P35372 whole entry): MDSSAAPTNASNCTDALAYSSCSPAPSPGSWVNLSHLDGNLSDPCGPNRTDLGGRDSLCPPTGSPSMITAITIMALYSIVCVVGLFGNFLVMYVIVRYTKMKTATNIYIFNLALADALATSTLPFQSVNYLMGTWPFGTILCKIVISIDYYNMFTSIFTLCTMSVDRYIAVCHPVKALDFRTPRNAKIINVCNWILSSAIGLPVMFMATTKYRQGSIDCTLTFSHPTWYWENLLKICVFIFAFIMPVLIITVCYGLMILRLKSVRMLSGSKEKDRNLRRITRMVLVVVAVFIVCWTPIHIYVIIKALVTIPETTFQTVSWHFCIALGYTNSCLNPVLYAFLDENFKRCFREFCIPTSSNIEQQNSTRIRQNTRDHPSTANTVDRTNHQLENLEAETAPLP

SMILES | MED (Gerbillinae) [mg/kg] | AUC (Rattus norvegicus) [ng·h/g] | Kp [1] | AUC [2] [µM/min] | AUC (Brain) [µM/min] | also measured
C[C@H](NC(=O)[C@](Cc1c[nH]c2ccccc12)(CN(C)C)NC(=O)OCc1cc2ccccc2o1)c1ccccc1 | 1 | 50 | 6 | – | – | IC50 (Substance-P receptor): 0.5 nM
CN1CC[C@]23c4c5ccc(O)c4O[C@H]2[C@@H](O)C=C[C@H]3[C@H]1C5 [MORPHINE] | – | – | – | 79 | 186 | –
CC(C)(C)c1ccc(C(O)CCCN2CCC(C(O)(c3ccccc3)c3ccccc3)CC2)cc1 (centres undefined) [TERFENADINE] | – | – | – | – | – | Papp [3]: 28.5 ×10⁻⁶ cm/s
CN1CC[C@]23c4c5ccc(O)c4O[C@H]2[C@@H](O[C@@H]2O[C@H](C(=O)O)[C@@H](O)[C@H](O)[C@H]2O)C=C[C@H]3[C@H]1C5 [MORPHINE GLUCURONIDE] | – | – | 0.05 | 336 | 42 | Kp uu [4]: 0.56; Ki (Mu-type opioid receptor): 63 nM
C[C@H](NC(=O)[C@@](C)(Cc1c[nH]c2ccccc12)NC(=O)OCc1cc2ccccc2o1)c1ccccc1 | 30 | 120 | 0.4 | – | – | solubility [5]: < 2 µg/mL; half-life [6]: > 6 h; bioavailability [7]: 60%
COc1ccc(C(CN(C)C)C2(O)CCCCC2)cc1 (centres undefined) [VENLAFAXINE] | – | – | – | – | – | Kp uu [8]: 0.98
